Measured values from PubChem BioAssay (NCI).
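GI50 is the concentration that inhibits growth by half. At the TGI there is no net growth.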

Assays:
Experiment in all cases: inhibition of tumour cell growth, NCI panel, 384-well format
786-0 renal = tested on: 786-0 renal
A498 renal = tested on: A498 renal
A549 NSCLC = tested on: A549 NSCLC
ACHN renal = tested on: ACHN renal
BT-549 breast = tested on: BT-549 breast
COLO 205 colon = tested on: COLO 205 colon
DU-145 prostate = tested on: DU-145 prostate
HCC-2998 colon = tested on: HCC-2998 colon
HCT-116 colon = tested on: HCT-116 colon
HCT-15 colon = tested on: HCT-15 colon
HL-60(TB) leukemia = tested on: HL-60(TB) leukemia
HOP-62 NSCLC = tested on: HOP-62 NSCLC
HT29 colon = tested on: HT29 colon
IGROV1 ovarian = tested on: IGROV1 ovarian
K-562 leukemia = tested on: K-562 leukemia
KM12 colon = tested on: KM12 colon
LOX IMVI melanoma = tested on: LOX IMVI melanoma
M14 melanoma = tested on: M14 melanoma
MALME-3M melanoma = tested on: MALME-3M melanoma
MDA-MB-231 breast = tested on: MDA-MB-231 breast
MDA-MB-435 melanoma = tested on: MDA-MB-435 melanoma
MDA-MB-468 breast = tested on: MDA-MB-468 breast
MOLT-4 leukemia = tested on: MOLT-4 leukemia
NCI-H226 lung = tested on: NCI-H226 lung
NCI-H23 lung = tested on: NCI-H23 lung
NCI-H460 NSCLC = tested on: NCI-H460 NSCLC
NCI-H522 lung = tested on: NCI-H522 lung
NCI/ADR-RES ovarian = tested on: NCI/ADR-RES ovarian
OVCAR-3 ovarian = tested on: OVCAR-3 ovarian
OVCAR-4 ovarian = tested on: OVCAR-4 ovarian
OVCAR-5 ovarian = tested on: OVCAR-5 ovarian
RPMI-8226 leukemia = tested on: RPMI-8226 leukemia
RXF 393 renal = tested on: RXF 393 renal
SF-539 CNS = tested on: SF-539 CNS
SK-MEL-2 melanoma = tested on: SK-MEL-2 melanoma
SK-MEL-28 melanoma = tested on: SK-MEL-28 melanoma
SK-MEL-5 melanoma = tested on: SK-MEL-5 melanoma
SN12C renal = tested on: SN12C renal
SNB-19 CNS = tested on: SNB-19 CNS
SNB-75 CNS = tested on: SNB-75 CNS
SR leukemia = tested on: SR leukemia
T-47D breast = tested on: T-47D breast
TK-10 renal = tested on: TK-10 renal
U251 glioblastoma = tested on: U251 glioblastoma
UACC-257 melanoma = tested on: UACC-257 melanoma
UACC-62 melanoma = tested on: UACC-62 melanoma
UO-31 renal = tested on: UO-31 renal

SMILES: Cc1cc2c(C(C)C)c(O)c(O)c(C=O)c2c(O)c1-c1c(C)cc2c(C(C)C)c(O)c(O)c(C=O)c2c1O (tested in a mixture with another compound)
- GI50 ([…]-0 renal): 1.89 µM
- TGI (786-0 renal): 3.61 µM
- GI50 (A498 renal): 2.41 µM
- TGI (A498 renal): 9.87 µM
- GI50 (A549 NSCLC): 1.86 µM
- TGI (A549 NSCLC): 4.5 µM
- GI50 (ACHN renal): 2.05 µM
- TGI (ACHN renal): 4.66 µM
- GI50 (BT-549 breast): 1.53 µM
- TGI (BT-549 breast): 2.94 µM
- GI50 (COLO 205 colon): 3.18 µM
- TGI (COLO 205 colon): 9.01 µM
- GI50 (DU-145 prostate): 1.86 µM
- TGI (DU-145 prostate): 3.47 µM
- GI50 (HCC-2998 colon): 2.32 µM
- TGI (HCC-2998 colon): 4.7 µM
- GI50 (HCT-116 colon): 1.7 µM
- TGI (HCT-116 colon): 3.12 µM
- GI50 (HCT-15 colon): 1.83 µM
- TGI (HCT-15 colon): 3.35 µM
- GI50 (HL-60(TB) leukemia): 1.69 µM
- TGI (HL-60(TB) leukemia): 3.09 µM
- GI50 (HOP-62 NSCLC): 2.24 µM
- TGI (HOP-62 NSCLC): 3.9 µM
- GI50 (HT29 colon): 2.88 µM
- TGI (HT29 colon): 9.04 µM
- GI50 (IGROV1 ovarian): 1.95 µM
- TGI (IGROV1 ovarian): 3.85 µM
- GI50 (K-562 leukemia): 1.4 µM
- TGI (K-562 leukemia): 2.87 µM
- GI50 (KM12 colon): 1.5 µM
- TGI (KM12 colon): 3.1 µM
- GI50 (LOX IMVI melanoma): 1.83 µM
- TGI (LOX IMVI melanoma): 3.42 µM
- GI50 (M14 melanoma): 1.83 µM
- TGI (M14 melanoma): 3.79 µM
- GI50 (MALME-3M melanoma): 1.7 µM
- TGI (MALME-3M melanoma): 3.47 µM
- GI50 (MDA-MB-231 breast): 1.88 µM
- TGI (MDA-MB-231 breast): 4.15 µM
- GI50 (MDA-MB-435 melanoma): 2.42 µM
- TGI (MDA-MB-435 melanoma): 5.17 µM
- GI50 (MDA-MB-468 breast): 1.68 µM
- TGI (MDA-MB-468 breast): 3.29 µM
- GI50 (MOLT-4 leukemia): 0.765 µM
- TGI (MOLT-4 leukemia): 2.01 µM
- GI50 (NCI-H226 lung): 1.63 µM
- TGI (NCI-H226 lung): 3.03 µM
- GI50 (NCI-H23 lung): 1.84 µM
- TGI (NCI-H23 lung): 4.06 µM
- GI50 (NCI-H460 NSCLC): 1.9 µM
- TGI (NCI-H460 NSCLC): 3.4 µM
- GI50 (NCI-H522 lung): 1.86 µM
- TGI (NCI-H522 lung): 4.1 µM
- GI50 (NCI/ADR-RES ovarian): 1.83 µM
- TGI (NCI/ADR-RES ovarian): 3.32 µM
- GI50 (OVCAR-3 ovarian): 1.59 µM
- TGI (OVCAR-3 ovarian): 3.46 µM
- GI50 (OVCAR-4 ovarian): 2.85 µM
- TGI (OVCAR-4 ovarian): 7.52 µM
- GI50 (OVCAR-5 ovarian): 2.29 µM
- TGI (OVCAR-5 ovarian): 4.57 µM
- GI50 (RPMI-8226 leukemia): 1.42 µM
- TGI (RPMI-8226 leukemia): 2.73 µM
- GI50 (RXF 393 renal): 0.604 µM
- TGI (RXF 393 renal): 1.96 µM
- GI50 (SF-539 CNS): 1.72 µM
- TGI (SF-539 CNS): 3.18 µM
- GI50 (SK-MEL-2 melanoma): 1.97 µM
- TGI (SK-MEL-2 melanoma): 3.61 µM
- GI50 (SK-MEL-28 melanoma): 1.59 µM
- TGI (SK-MEL-28 melanoma): 3.13 µM
- GI50 (SK-MEL-5 melanoma): 1.76 µM
- TGI (SK-MEL-5 melanoma): 3.18 µM
- GI50 (SN12C renal): 1.92 µM
- TGI (SN12C renal): 3.73 µM
- GI50 (SNB-19 CNS): 1.25 µM
- TGI (SNB-19 CNS): 2.92 µM
- GI50 (SNB-75 CNS): 2.26 µM
- TGI (SNB-75 CNS): 4.37 µM
- GI50 (SR leukemia): 1.8 µM
- TGI (SR leukemia): 3.21 µM
- GI50 (T-47D breast): 1.7 µM
- TGI (T-47D breast): 3.41 µM
- GI50 (TK-10 renal): 2.48 µM
- TGI (TK-10 renal): 6.23 µM
- GI50 (U251 glioblastoma): 1.59 µM
- TGI (U251 glioblastoma): 3.02 µM
- GI50 (UACC-257 melanoma): 1.99 µM
- TGI (UACC-257 melanoma): 3.8 µM
- GI50 (UACC-62 melanoma): 1.81 µM
- TGI (UACC-62 melanoma): 3.25 µM
- GI50 (UO-31 renal): 2.73 µM
- TGI (UO-31 renal): 7.08 µM
